From patent publication US20050042239A1, “Process for preparing biocide formulations” (priority 2003, published 2005)

Key:
[1] = test system: algae; assay: Dosing of micro-mixed emulsion to cooling tower water: control of algae; conditions: 3 ppm isothiazolone in cooling water of cooling tower
Method: A 50 wt. % solution of 4,5-dichloro-2-octyl-3-isothiazolone in benzyl alcohol is fed to an array of slit shaped interdigital micro-mixers at a feed rate of 50 mL/minute, combined with water fed to the micro-mixer at a feed rate of 600 mL/minute. The water contains no surfactants. The resulting emulsion exiting the micro-mixer it is directly dosed to cooling water in a 50,000 gallon […] cooling tower, where is effectively distributed and re-circulated throughout the cooling water. After about 20 minutes, the isothiazolone concentration in the cooling water reaches a desired concentration of 3 ppm and the emulsion feed is stopped. […] Focusing micro-mixers also produce similar results as compared to the micro-mixers described above. Melted 2-octyl-3-isothiazolone as a neat liquid is fed to an array of slit shaped interdigital micro-mixers at a feed rate of 50 mL/minute, combined with water fed to the micro-mixer at a feed rate of 600 mL/minute. The water contains no surfactants and solvents. The resulting emulsion exiting the micro-mixer it is directly dosed to cooling water in a 50,000 gallon […] cooling tower, where is effectively distributed and re-circulated throughout the cooling water. After about 20 minutes, the isothiazolone concentration in the cooling water reaches a desired concentration of 3 ppm and the emulsion feed is stopped. […]

[2] = test system: mold; assay: Dosing of micro-mixed emulsion to paper pulp slurry tank: mold proofing of paper; conditions: surfactant-free emulsion from 50 wt. % solution in benzyl alcohol (56 mL/minute) micro-mixed with water, charged to 10,000 liter pulp slurry tank
Method: A 10,000 liter pulp slurry tank has a continuous throughput averaging 6,600 liters/minute. A 50 wt. % solution of 4,5-dichloro-2-octyl-3-isothiazolone in benzyl alcohol is fed to an array of slit shaped interdigital micro-mixers at a feed rate of 56 mL/minute, combined with water fed to the micro-mixer at a feed rate of 600 mL/minute. The water contains no surfactants. The resulting emulsion exiting the micro-mixer is directly charged to water in the pulp slurry tank, where it is effectively distributed and re-circulated throughout the tank water. […] Focusing micro-mixers also produce similar results as compared to the micro-mixers described above.

Row | Compound | control of algae in cooling water ([1]; surfactant- and solvent-free emulsion from melted neat liquid micro-mixed with water) | mold proofing in paper prepared from treated pulp [2] | control of algae in cooling water ([1]; surfactant-free emulsion from 50 wt. % solution in benzyl alcohol micro-mixed with water)
1 | CCCCCCCCn1sccc1=O [2-octyl-3-isothiazolone] | Effective control of algae | – | –
2 | CCCCCCCCn1sc(Cl)c(Cl)c1=O [4,5-dichloro-2-octyl-3-isothiazolone] | – | effective mold proofing | Effective control of algae
